Assays:
Assay type in all cases: cell-based, human
[1] = system: H23-KDLKB1 and H23-LKB1 cells; test: Clonogenic survival of H23-LKB1 and H23-KDLKB1 cells; details: 24 h treatment, colonies after 14 days
Description: (§1) Clonogenic survival assay were performed in 6 well dishes. Briefly, 300-500 cells were plated per well and allowed to attach overnight. Drugs were diluted fresh into media and cells were treated for 24 hours. Drug containing media was removed and replaced with fresh media. After 14 days, cells were fixed in 10% Methanol/10% Acetic Acid and stained with 0.5% crystal violet. After washing in ddH2O, plates were allowed to dry and colonies of 50 cells or more were counted. The surviving fraction was calculated according to methods described by Franken, et al.
as §1, with “200 of indicated” for “300-500”, “Were indicated cells were pre-treated with 125 ng/ml of cyclohexamide (CHX) for one hour. Indicated drugs” for “Drugs”, “h, at which time the drug” for “hours. Drug”, “Franken” for “Franken,”, “al. [Clonogenic assay of cells in vitro, NAT. PROT. 1 (5) (2006) 2315-2319].” for “al.”

[2] = system: H23-KDLKB1 and H23-LKB1 NSCLC cells; test: Immunoblot of BiP and CHOP in H23-LKB1 and H23-KDLKB1 cells; details: 18 h; or bortezomib (40 nM)
Description: (§2) Cells were washed once with ice-cold PBS and incubated on ice for 30 min with a lysis buffer containing 10 mM Tris-HCl, 150 mM NaCl, 0.1% SDS and 1% IGEPAL (Sigma) to which a protease inhibitor cocktail (Sigma) and two phosphatase cocktails I and II (Sigma) were added immediately before use. Lysates were transferred to tubes and insoluble material was pelleted by centrifugation. For immunoblotting, 50-100 μg of total protein lysates were separated by SDS-PAGE and transferred to nitrocellulose. Blots were blocked in 5% milk/Tris buffered saline/0.1% TWEEN® 20 (polyoxyethylenesorbitan monolaurate) (TBST) and primary antibodies were diluted in 5% Bovine Serum Albumin (Sigma)/TBST and incubated overnight at 4° C. Blots were developed with ECL plus (GE) and visualized on a Kodak Image station.

H838-KDLKB1 cells = test: Clonogenic survival of H838-LKB1 and H838-KDLKB1 cells
Description: as §1, with “200 of indicated” for “300-500”, “Were indicated cells were pre-treated with 125 ng/ml of cyclohexamide (CHX) for one hour. Indicated drugs” for “Drugs”, “h, at which time the drug” for “hours. Drug”, “Franken” for “Franken,”, “al. [Clonogenic assay of cells in vitro, NAT. PROT. 1 (5) (2006) 2315-2319].” for “al.”

AMPK, H2009 LA cells = test: Immunoblot of BiP and CHOP in H2009 cells with AMPK inhibitor before 2DG; set-up: dose or concentration left out as unconfirmed; details: H2009 cells treated with Compound C
Description: Cells were incubated on ice for 30 minutes with a lysis buffer containing 10 mM Tris-HCL, 150 mM NaCl, 0.1% SDS and 1% IGEPAL (Sigma). Immediately before use, a protease inhibitor cocktail (Sigma) and two phosphatase cocktails I and II (Sigma) were added to the lysis buffer. Lysates were transferred to tubes and insoluble material was pelleted by centrifugation. Nuclear protein fractions were isolated using a NE-PER protein extraction kit (ThermoFisher) according to manufacturer's instructions. Protein concentration was determined using the Bio-Rad DC protein kit. For immunoblotting, 50-100 ug of total protein lysates was separated by SDS-PAGE and transferred to nitrocellulose. Blots were blocked in 5% milk/Tris buffered saline/0.1% TWEEN® 20 (polyoxyethylenesorbitan monolaurate) (TBST) and primary antibodies were diluted in 5% Bovine Serum Albumin (Sigma)/TBST and incubated overnight at 4° C. Blots were developed with ECL plus (GE) and visualized on a Kodak Image station.

[3] = system: H838-KDLKB1 and H838-LKB1 cells; test: Immunoblot of ER stress markers in H838-LKB1 and H838-KDLKB1 cells; details: 12 h; 2DG 10 mM, Tm 1.25 ug/ml, BFA 30 ng/ml
Description: as §2

[4] = system: H838-KDLKB1 and H838-LKB1 cells; test: Flow cytometry of ROS levels (CellROX staining); details: CellROX FACS, 12 h; 2DG 10 mM, Tm 1.25 μg/ml, BFA 30 ng/ml; baseline difference 1.4-fold
Description: To analyze levels of reactive oxygen species (ROS), 1×10^6 H838-KDLKB1 and H838-LKB1 cells were plated and treated with the indicated drugs. Cells were then stained with 0.5 1M CellRox™ for 30 min at 37° C., collected by trypsinization and washed with PBS. Following fixation with 2% Paraformaldehyde/PBS for 20 min, cells were brought to a final volume of 500 ll in PBS. CellRox™ staining of ROS was assessed using the Accuri C6 Flow Cytometer (BD Biosciences, San Jose, Calif., USA) with the threshold set at 80,000. A total of 30,000 events were collected per sample and ROS staining intensity determined using FCS Express 4 Flow Cytometer software. Background events were gated out using unstained control. Histogram plots were overlaid and histogram subtraction was performed by subtracting the integral of the stained control from the treated sample.

[5] = system: A427-KDLKB1 and A427-LKB1 cells; test: ATP measurement/cell viability (CellTiter-Glo), A427; details: 48 h; 2DG 10 mM, Tm 1.25 μg/ml, BFA 30 ng/ml; p<0.005
Description: (§3) 500 H838 or A427 cells stably expressing either LKB1 or KDLKB1 were plated in 96 well plates. The following day, cells were dosed with the indicated treatments for 48 h. Cellular ATP levels were assessed using the CellTiter-Glo Luminescent Cell Viability Assay substrate (Promega) according to manufacturer's instructions. Luminescence was read using the DTX 880 Multimode Detector. Cellular ATP/cell viability was calculated relative to vehicle treated control.

[6] = system: H838-KDLKB1 and H838-LKB1 cells; test: ATP measurement/cell viability (CellTiter-Glo), H838; details: 48 h; 2DG 10 mM, Tm 1.25 μg/ml, BFA 30 ng/ml; p<0.005
Description: as §3

Compound: Cc1ccc(-c2cc(C(F)(F)F)nn2-c2ccc(S(N)(=O)=O)cc2)cc1 [celecoxib]
- Clonogenic survival / cytotoxicity in H23-KDLKB1 compared to H23-LKB1 [1]: reduced the survival of H23-KDLKB1 cells in a dose dependent manner
- BiP expression in H23-KDLKB1 compared to H23 cells with reconstituted LKB1 [2]: 1.6 fold decrease
- CHOP expression in H23-KDLKB1 compared to H23 cells with reconstituted LKB1 [2]: 1.3 fold decrease

Compound: C[C@@H]1C[C@@H]([C@H](O)CC2CC(=O)NC(=O)C2)C(=O)[C@@H](C)C1 [CHX, Cycloheximide]
- Effect of added CHX on 2DG, BFA and Tm cytotoxicity in H838-KDLKB1 cells (H838-KDLKB1 cells; 125 ng/ml CHX pre-treatment one hour, compared to 2DG, BFA or Tm alone, p<0.05): ameliorate 2DG, BFA and Tm cytotoxicity

Compound: c1cc(-c2cnn3cc(-c4ccc(OCCN5CCCCC5)cc4)cnc23)ccn1 [compound C]
- Expression of BiP and CHOP in response to 2DG (AMPK, H2009 LA cells): prevented expression of both BiP and CHOP

Compound: C[C@H]1CCC/C=C/[C@@H]2C[C@H](O)C[C@H]2[C@H](O)/C=C/C(=O)O1 [BFA, brefeldin A]
- Phosphorylated eIF2a in H838-KDLKB1 compared to H838-LKB1 cells [3]: increased levels of phosphorylated eIF2a
- Clonogenic cell survival of H838-KDLKB1 cells (H838-KDLKB1 cells; 24 h, 2DG 10 mM, Tm 1.25 μg/ml, BFA 30 ng/ml): reduced cell survival
- ROS levels in H838-KDLKB1, increase in intensity over H838-LKB1 [4]: 1.2 fold
- Cellular ATP in A427-KDLKB1 compared to A427 re-expressing LKB1 [5]: reduced ATP
- Cellular ATP in H838-KDLKB1 compared to H838 re-expressing LKB1 [6]: reduced ATP
